According to publication PMC10419416, “Fighting Pseudomonas aeruginosa Infections: Antibacterial and Antibiofilm Activity of D-Q53 CecB, a Synthetic Analog of a Silkworm Natural Cecropin B Variant” (International Journal of Molecular Sciences, 2023):
Values after ≈ are worked out from the molar mass of the structure shown. Non-standard residues stand in square brackets, D forms with d. Residues, ends and D or L forms follow the SMILES beside them. No end group written: not given here.

Tests used:
Assay type in all cases: cell-based, Pseudomonas aeruginosa
[1] = system: P. aeruginosa ATCC 27853 and ATCC 25668 strains; experiment: microbe, parasite or virus in culture; settings: ATCC 27853, 24 h
Protocol: The following strains were used: P. aeruginosa ATCC 27853, ATCC 25668, and PAO1-L (Lausanne subline). All strains were grown at 37 °C in Luria Bertani (LB) medium or in Luria Bertani Agar (LBA) plates.
The antibacterial activities of L- and D-Q53 CecB were evaluated by determining (i) the MIC and (ii) the MBC. Tobramycin (Merck) was used as an antibiotic control. (i) An overnight (ON) bacterial culture was diluted to 1 × 10^6 cells/mL in LB medium. 50 µL/well were seeded in sterile polypropylene 96-well plates (Corning, Corning, NY, USA) and added with 50 µL LB medium, containing serial dilutions of each compound (final concentrations of L- and D-Q53 CecB peptides from 1.1 to 35.2 µM; final concentrations of tobramycin from 0.26 to 17 μM; each condition in triplicate). Microbial suspensions in the growing medium (positive control) and wells with only the medium (negative controls) were processed in parallel. Plates were incubated 24 h at 37 °C with agitation (300 rpm), and the absorbance was measured at 600 nm in a microplate reader. The MIC was considered as the lowest concentration determining a delta optical density at 600 nm (ΔOD600) equal to 0 ± 0.05. The ΔOD600 was determined by subtracting the OD600 recorded at time 0 from that obtained after 24 h. Each experiment was performed at least three times. […] For each sample, 100 μL of 1:10, 1:100, and 1:1000 dilutions were plated on LBA plates, and colonies were counted after 24 h at 37 °C. […] Each experiment was performed at least twice.

[2] = system: P. aeruginosa ATCC 25668, mucoid strain; settings: for inhibitory effect on biofilm formation: 1/32 and 1/64 MIC, 24 h
Protocol: (§1) An ON bacterial culture was diluted to 2 × 10^6 cells/mL in an LB medium. 50 µL/well were seeded in a sterile non-treated polystyrene 96-well plate (Corning) and added with 50 µL LB medium containing serial dilutions of each compound (final concentrations of L- and D-Q53 CecB peptides: from 0.034 to 17.6 µM; final concentrations of tobramycin: 0.27 and 0.53 μM, and from 2.14 to 17 μM). Each condition was tested in three-six replicates. Wells containing untreated bacteria (negative controls) or LB medium only (blank) were followed in parallel. Each plate was incubated for 24 h at 37 °C without agitation. After washing twice, samples were stained with a 0.1% crystal violet solution for 20 min, washed three times, and incubated in 30% acetic acid for 20 min, as in [74]. Plates were read at 595 nm using a microplate reader. For each sample, the biofilm biomass percentage was calculated relative to that of the untreated control showing the highest OD value, set equal to 100%. Each experiment was performed at least twice.

[3] = system: P. aeruginosa ATCC 27853, non-mucoid strain; settings: for inhibitory effect on biofilm formation: 1/32 and 1/64 MIC, 24 h; for decrement in biofilm biomass (inhibition of biofilm formation): ATCC 27853, 24 h
Protocol: as §1

[4] = system: P. aeruginosa ATCC 27853, non-mucoid strain; experiment: Degradation of pre-formed 24 h old biofilm, crystal violet; settings: for mean decrement in biomass of pre-formed biofilm: 1 h treatment of 24 h old biofilm
Protocol: One hundred μL of bacteria (1 × 10^6 cells/mL), derived from a fresh ON culture, were seeded in a sterile non-treated polystyrene 96-well plate (Corning) and incubated for 24 h at 37 °C without agitation. […] Evaluation of biofilm biomass was performed using a crystal violet assay as described above (Section 4.8). Experiments were performed two-four times.

P. aeruginosa ATCC 25668 = experiment: CFU assay of medium over treated 24 h old biofilm; settings: for mean CFUs/mL decrement vs untreated control: 1 MIC, 1 h; for living bacterial cells in the medium, Mean ± SEM: 1 h treatment of 24 h-old biofilm with 1 MIC (2.2 μM), four experiments, control 2.67 ± 2.67 × 10^15
[5] = system: P. aeruginosa ATCC 25668 strain; experiment: Motility assay (swimming, swarming, twitching); settings: 1/2 MIC L-Q53 CecB or 1/4 MIC D-Q53 CecB; for effect on swimming motility: 0.3% agar LB plates; for effect on swarming motility: 0.5% agar LB plates; for effect on twitching motility (bacterial growth area): 1% agar LB plates
Protocol: The motility assay was performed as in [36], with minor modifications. […] Inocula were performed with a sterile toothpick (i) within the medium to detect swimming, (ii) on the top of the medium to detect swarming, and (iii) on the bottom of the plate to detect twitching. Bacteria grown and plated in the absence of any peptide were processed as negative controls. Plates were incubated at 30 °C (for swimming and swarming) or 37 °C (for twitching) and monitored for 24–48 h. Plate images were taken with a digital camera. Post-acquisition analyses were performed with Fiji, an open-source image-processing package based on ImageJ (http://fiji.sc/wiki/index.php, downloaded on 4 April 2022). Swimming, swarming, and twitching data were obtained by calculating the area of the growing zone over the total area of each plate. Values were expressed as percentages. Each type of motility was evaluated in at least four independent experiments, each with one replica per condition.

[6] = system: P. aeruginosa biofilms (ATCC 25668); experiment: Confocal microscopy of pre-formed biofilm, thickness; settings: 1 h treatment with 1 MIC (2.2 μM) of 24 h old biofilm; 6-8 confocal fields
Protocol: Bacteria cells (1 × 10^6 cells/mL) were grown in Permanox four-wells chamber slide systems (1.8 cm^2/well; Nunc® Lab-Tek® Chamber SlideTM system) at 37 °C for 24 h without agitation to allow biofilm formation. […] Negative controls, treated with LB only, were followed in parallel. […] After each staining, samples were washed twice with PBS. After washing, samples were fixed in 4% Paraformaldehyde, mounted in VECTASHIELD® mounting medium (Vector Laboratories, Newark, CA, USA), and observed using a Zeyss LSM 900 Airyscan 2 confocal microscope and a ×63 oil immersion objective. Optical sections (Z-series) were taken at 0.2 μm intervals. Experiments were performed four times (one-two replicates per condition). […] EPS was visualized using a 405 nm wavelength for excitation and 413-480 nm for emission (blue); to detect proteins or Propidium Iodide (red), a 543 nm wavelength for excitation and 590-610 nm for emission were used. Post-acquisition analyses were performed with Fiji (http://fiji.sc/wiki/index.php, downloaded on 4 April 2022). Cross-section views (x-z and y-z planes were obtained with the “Orthogonal View” plugin. To evaluate live and dead cells, images of single 0.13 μm slices taken in the upper part of the biofilm (i.e., in contact with the peptide during treatment) were processed using the “Counting Objects” plugin, and the same threshold level for red and green colors.

Compound	MBC [1]	inhibitory effect on biofilm formation [2]	decrement in biofilm biomass (inhibition of biofilm formation) ([2]; ATCC 25668, 24 h)	mean decrement in biofilm biomass (inhibition of biofilm formation) ([2]; ATCC 25668, 24 h)	inhibitory effect on biofilm formation [3]	decrement in biofilm biomass (inhibition of biofilm formation) [3]	mean decrement in biomass of pre-formed biofilm ([4]; 1/2 MIC (1.1 μM))	reduction of pre-formed biofilm ([4]; 1/4 MIC (0.55 μM), 1 h)	mean decrement in biomass of pre-formed biofilm ([4]; 8 MIC (17.6 μM))	mean CFUs/mL decrement vs untreated control (P. aeruginosa ATCC 25668)	living bacterial cells in the medium, Mean ± SEM (P. aeruginosa ATCC 25668)	effect on swimming motility [5]	effect on swarming motility [5]	effect on twitching motility (bacterial growth area) [5]	reduction in biofilm thickness vs untreated controls [6]	reduction of pre-formed biofilm biomass at all tested concentrations ([4]; 1 h, L-Q53 CecB 1/2 to 8 MIC, tobramycin 1 to 8 MIC)
CC[C@@H](C)[C@@H](NC(=O)[C@@H](C)NC(=O)[C@@H](CCCCN)NC(=O)[C@@H](C)NC(=O)[C@@H](CO)NC(=O)CNC(=O)[C@@H](CC(C)C)NC(=O)[C@H](NC(=O)[C@@H](CCC(N)=O)NC(=O)[C@H](NC(=O)[C@@H](C)NC(=O)[C@H]1CCCN1C(=O)CNC(=O)[C@@H](C)NC(=O)[C@@H](CCCCN)NC(=O)[C@H](NC(=O)[C@H](NC(=O)CNC(=O)[C@@H](CC(=O)O)NC(=O)[C@@H](CCCNC(=N)N)NC(=O)[C@H](NC(=O)[C@@H](CC(N)=O)NC(=O)[C@@H](CCCNC(=N)N)NC(=O)CNC(=O)[C@@H](CCSC)NC(=O)[C@@H](CCCCN)NC(=O)[C@@H](CCC(=O)O)NC(=O)[C@H](NC(=O)[C@@H](CCCCN)NC(=O)[C@@H](CCCCN)NC(=O)[C@@H](Cc1ccccc1)NC(=O)[C@H](NC(=O)[C@@H](CCCCN)NC(=O)[C@@H](Cc1c[nH]c2ccccc12)NC(=O)[C@H](N)CCCNC(=N)N)[C@H](C)CC)[C@H](C)CC)[C@H](C)CC)[C@H](C)CC)C(C)C)[C@H](C)CC)C(C)C)C(N)=O [D-Q53 CecB] (H-[dR][dW][dK][dI][dF][dK][dK][dI][dE][dK][dM]G[dR][dN][dI][dR][dD]G[dI][dV][dK][dA]G[dP][dA][dI][dQ][dV][dL]G[dS][dA][dK][dA][dI]-NH2; N-terminus and C-terminus assumed)	4.40 µM (≈ 17.1 µg/mL)	did not show any significant inhibitory effect	30 to 44%	93%	did not show any significant inhibitory effect	30 to 60%	49%	lost its ability to reduce pre-formed biofilms	64%	7 orders of magnitude	6.70 ± 6.6 × 10^8 CFUs/mL	not able to affect	not able to affect	significant reductions	~ 77%	–
RWKIFKKIEKMGRNIRDGIVKAGPAIQVLGSAKAI-NH2 [L-Q53 CecB]	11 µM	did not show any significant inhibitory effect	30 to 44%	–	did not show any significant inhibitory effect	30 to 60%	–	–	–	10 orders of magnitude	2.89 ± 2.38 × 10^5 CFUs/mL	not able to affect	not able to affect	no effect	did not significantly reduce biofilm thickness	did not significantly reduce biofilm biomass
